# Experimental data: patent US7485710B2, “Nucleic acids coding for adhesion factor of group B streptococcus, adhesion factors of group B streptococcus and further uses thereof” (priority 2002, dated 2009)
# Tests used:
# [1] = Subcutaneous immunization of mice and probing of fusion proteins with mice sera; assay type: in vivo; settings: boost after three weeks, serum after six weeks, 1:1000 dilution
# From the text: Serial dilutions of the fusion proteins PabA, PabB, and PabD were spotted onto nitrocellulose and probed with a 1:1000 dilution of the mice sera against the respective proteins. Bound antibodies were labelled with an anti-mouse-HRP conjugate and visualized by chemiluminescence.
# To test, if the proteins PabA, PabB and PabD elicit an immune response in mice, purified PabA, PabB and PabD fusion protein was used for the subcutaneous immunization of mice. The mice were boosted after three weeks and serum was collected six weeks after the first immunization. Serial dilutions of the PabA, PabB, and PabD fusion proteins were blotted onto nitrocellulose and probed with the mice sera against the different proteins.
# [2] = system: A549 cells; test: Interaction of protein-coated latex beads with A549 cells (scanning electron microscopy); assay type: cell-based, human
# Experimental: BSA-coated latex beads were used as a control.
# Latex beads were either coated with BSA (A) or FbsA fusion protein (B-D) and the interaction of the coated beads with the lung epithelial cell line A549 was analyzed by scanning electron microscopy.
# Approximately […] latex beads (3 μm diameter, Sigma) were washed tree times in PBS and then coated with 300 μg of fusion protein or BSA in 500 μl PBS overnight at 4° C. Coated beads were washed once in PBS and then blocked with 200 μl of 10 mg/ml BSA in PBS for 1 h at room temperature. Beads were washed twice in PBS and once in RPMI+10% FCS and then resupended in 1 ml of RPMI+10% FCS. 300 μl of beads were added to approximately 4×10^5 A549 cells in 24-well plates. The cells were incubated for 1 h at 37° C. (5% CO2), washed five times with PBS and fixed in a solution containing 3% glutaraldehyde and 5% formaldehyde in cacodylate bluffer for 45 min on ice. The samples were washed with cacodylate buffer, dehydrated in a graded series of acetone and subjected to critical point drying with CO2. Samples were then coated with a 10 nm thick gold film and examined by scanning electron microscopy as described previously (Reinscheid et al., 2001a).
# Approximately 1×10^9 latex beads (3 μm diameter, Sigma) were washed three times in 25 mM 2-N-morpholinoethanesulfonic acid (MES), pH 6.8. One half was resuspended in 1.0 ml MES buffer containing 500 μg/ml FbsA fusion protein and the remaining half was resuspended in 1.0 ml MES buffer. The beads were incubated overnight at 4° C. with end-over-end rotation. After pelleting of the beads by centrifugation, the amount of remaining protein in the supernatant was determined with a Bradford protein assay kit (BioRad). The beads were washed once with MES buffer and blocked for 1 h with 10 mg/ml BSA in MES buffer at room temperature. The beads were washed twice with MES buffer, once with RPMI+10% FCS, and resuspended in RPMI+10% FCS. Confluent A549 cells in 24-well plates were inoculated with 2×10^8 beads per well in a total volume of 1.0 ml. The bead monolayer mixtures were incubated for 2 h at 37° C. in a 5% CO2 atmosphere. Cells were washed five times with PBS and fixed with 3% paraformaldehyde and 4% glutaraldehyde in […] cacodylate buffer for scanning electron microscopy. Scanning electron microscopy was performed with a Zeiss DSM 962 microscope.
# [3] = system: A549 cells; test: Epithelial cell adherence and internalization assay of GBS 6313 in presence of proteins; assay type: cell-based, human; settings: for adherence of GBS 6313 to A549 cells in the presence of fusion protein / invasion of A549 cells by GBS 6313 in the presence of fusion protein: 100 μg/ml fusion protein (FIG. 19)
# Experimental: The adherence of GBS 6313 to A549 cells (A) and its internalization into these cells (B) was arbitrarily set to 100% and the results obtained in the presence of the different fusion proteins was related to these values. Each experiment was performed at least three times in triplicate.
# Adherence of GBS to epithelial cells and internalization into epithelial cells was assayed essentially as described previously (Caparon et al., 1991; Rubens et al. 1992). Briefly, A549 cells were transferred to 24-well tissue culture plates at approximately 4×10^5 cells per well and cultivated overnight in RPMI (Gibco BRL) tissue culture medium, supplemented with 10% of fetal calf serum. After replacement of the medium with 1 ml of fresh medium, the cells were infected with 5×10^6 streptococci per well and incubated at 37° C. for 2 h. The non-adherent bacteria were removed by washing three times with PBS. In adherence assays, the epithelial cells were subsequently detached from the well by the addition of trypsin/EDTA and lysed by adding 300 μl of distilled water. Adherent bacteria were quantitated by plating serial dilutions of the lysate onto THY agar plates. For internalization assays the epithelial cells were incubated after 2 h of infection for another 2 h in tissue culture medium supplemented with penicilling G (10 U) and streptomycin (0.01 mg) to kill extracellular bacteria. After three washes with PBS, the epithelial cells were detached by the addition of trypsin/EDTA and lysed in 300 μl of distilled water. The amount of intracellular bacteria was quantified by plating serial dilutions of the lysate onto THY agar plates. Each experiment was repeated at least three times in triplicate. […]
# Adherence of S. agalactiae to A549 and HEL299 cells and internalization into these cells was assayed essentially as described in Example 1 for A549 cells. In some experiments, A549 cells were preincubated with different amounts of FbsA protein or FbsA-derived peptides in RPMI medium for 30 min with three subsequent washes with PBS.
# [4] = system: GBS strain 6313; test: Binding of radiolabelled human proteins to GBS; set-up: species or system Streptococcus agalactiae; settings: untreated bacteria
# Experimental: Purified human fibrinogen was radiolabelled with ^125I, using the chloramin T method (Hunter and Greenwood, 1962). Binding of labelled fibrinogen to GBS was performed essentially as described by Chhatwal et al. (Chhatwal, Muller, and Blobel, 1983). Briefly, overnight cultures of GBS were pelleted by centrifugation, washed twice with phosphate-buffered saline supplemented with 0.02% Tween 20 (PBST) and adjusted photometrically to a transmission of 10% at 600 nm. A total of 0.2 ml of the bacterial suspension was added to 20 μl of ^125I-labelled fibrinogen containing 23 ng of fibrinogen. After incubation for 1 h at room temperature, the streptococci were sedimented by centrifugation and washed with 1 ml of PBST. The radioactivity of the pellet was finally measured in a gamma counter (Packard Instruments). The amount of bacterial-bound fibrinogen was calculated as the percentage of total radiolabelled fibrinogen added to the bacteria. In inhibition experiments, the binding of 23 ng of radiolabelled fibrinogen to 0.2 ml of GBS (T=10%) was determined in the presence of various amounts of FbsA fusion proteins, Bsp fusion protein or synthetic peptides. Each experiment was repeated at least three times in triplicate.
# GBS strain 6313, belonging to serotype III, was tested in binding experiments for its interaction with radiolabelled human vitronectin, laminin, fibronectin, fibrinogen, and IgG. […]
# [5] = 1 μg/ml of externally added fibrinogen
# [6] = fibrinogen 0.1 μg/ml to 1.0 μg/ml, fibronectin 10 μg/ml, data not shown
Molecule,immune response in mice (detection of fusion protein by mice sera) [1],binding of protein-coated latex beads to A549 cells [2],adherence of GBS 6313 to A549 cells in the presence of fusion protein [3],invasion of A549 cells by GBS 6313 in the presence of fusion protein [3],radiolabelled protein accumulated on the surface of GBS 6313 (of total) [4],"reduction of the adherence of GBS 6313 to A549 cells [3, 5] [%]","reduction of the invasion of A549 cells by GBS 6313 [3, 5] [%]","bacterial adherence to A549 cells after pre-incubation of S. agalactiae 6313 with protein [3, 6]","bacterial invasion of A549 cells after pre-incubation of S. agalactiae 6313 with protein [3, 6]"
PabA,high immunogenicity,significant binding,significantly reduced,significantly reduced,,,,,
"fibrinogen: purified human fibrinogen (Sigma), 330 kDa plasma glycoprotein [reference compound]",,,,,about 50%,90,90,dose-dependent inhibition,dose-dependent inhibition
"PabD: C-terminally his-tagged fusion protein of GBS 6313 PabD (gbs0851) devoid of signal peptide (protein, left off: small tags and cut ends, C-terminally his-tagged fusion protein of GBS 6313 PabD (gbs0851) devoid of signal peptide) DDNFEMPTRYVKMSEKSKAFYQRLQEKQRKAHTTVKTFNNSEIRHQLPLKQEKARNDIYNLGILISQESKGFIQRIDNAYSLENVSDIVNEAQALYKRNYDLFEKIKSTRDKVQVLLASHQDNTDLKNFYAELDDMYEHVYLNESRVEAINRNIQKYN",high immunogenicity,significant binding,significantly reduced,significantly reduced,,,,,
